System: Myo5 SH3 domain
Assay: SPOT analysis of cellulose-bound peptides (WISE), Myo5 SH3 domain (Dataset S4)
Assay type: binding, Saccharomyces cerevisiae
Settings: for The normalized value in BLU units: Myo5 SH3 domain
[1] = SPOT analysis of membrane-bound peptides, normalized value (see methods)
[2] = SPOT analysis of membrane-synthesized peptides probed with Myo5 SH3 domain, normalized value
[3] = SPOT analysis of cellulose-bound 14-mer yeast proteome peptides, normalized value, mean where the peptide was synthesized more than once
[4] = SPOT analysis of cellulose-bound peptides probed with Myo5 SH3 domain, normalized value

Row | Sequence | The normalized value in BLU units [1] | The normalized value in BLU units (SPOT analysis, Myo5 SH3) [2] | further results
1 | VQIKRADPHFPHDE | 132.0 BLU |  | 
2 | VRSKRLFPVRPMAT | 503.5 BLU |  | 
3 | VSKAKLQPAKPQFT | 252.3 BLU |  | 
4 | VSQRKKRPISPHLT | 814.5 BLU |  | 
5 | VTDIKLTPTDPLVG |  | 851.7 BLU | 
6 | VTSVKLHPNLPIVF |  |  | The normalized value in BLU units [3]: 136.6 BLU
7 | VVAVKIIPKKPWNA |  | 114.7 BLU | 
8 | VVNEKEVPAEPETQ |  | 100.0 BLU | 
9 | VVPERVKPAPPVSR | 149.8 BLU |  | 
10 | VWGPKPVPFQPMDV | 96.9 BLU |  | 
11 | VYRRKCIPFAPHQI |  | 382.9 BLU | 
12 | WEALKSVPIPPRKN | 379.0 BLU |  | 
13 | WENFKEEPGEPLSR |  | 96.8 BLU | 
14 | WETWLYKPGMPPRP |  |  | The normalized value in BLU units [3]: 255.2 BLU
15 | WFDLKGLPRQPEPL |  | 101.7 BLU | 
16 | WFILKLFPHEPIEG | 1272.7 BLU |  | 
17 | WLDEKRIPSTPIDY |  | 163.3 BLU | 
18 | WLDEKRIPSTPVDY | 240.0 BLU |  | 
19 | WLGNKYDPENPFND |  | 88.8 BLU | 
20 | WLLPYSLPMHPGRW |  |  | The normalized value in BLU units (SPOT analysis, Myo5 SH3) [4]: 706.0 BLU
21 | WLSKLVLPPPPVSI |  |  | The normalized value in BLU units (SPOT analysis, Myo5 SH3) [4]: 4130.6 BLU

Row | Sequence | The normalized value in BLU units [1] | The normalized value in BLU units (SPOT analysis, Myo5 SH3) [2] | further results
22 | WRWARDTPRAPGLH |  | 2104.5 BLU | 
23 | WSQMRMNPTNPDWI |  | 81.2 BLU | 
24 | YASQYSRPDGPILL |  |  | The normalized value in BLU units [3]: 113.5 BLU
25 | YAVDKIMPPTPAKK | 109.8 BLU |  | 
26 | YAVGRIVPDSPTYD |  | 189.3 BLU | 
27 | YCPWKLCPLLPILY | 176.0 BLU |  | 
28 | YDLTRFLPNHPGGQ | 80.6 BLU |  | 
29 | YEADYVIPVLPGSH |  |  | The normalized value in BLU units [3]: 124.6 BLU
30 | YEGPRGAPGMPEML | 166.5 BLU |  | 
31 | YEGRFWNPENPYKF |  |  | The normalized value in BLU units [3]: 162.7 BLU
32 | YEKALHFPAGPKST |  |  | The normalized value in BLU units (SPOT analysis, Myo5 SH3) [4]: 147.4 BLU
33 | YENCHSLPLDPQSP |  |  | The normalized value in BLU units [3]: 121.9 BLU
34 | YEQTMKSPKYPSTY |  |  | The normalized value in BLU units (SPOT analysis, Myo5 SH3) [4]: 138.4 BLU
35 | YEVTFDGPNDPLHP |  |  | The normalized value in BLU units [3]: 110.9 BLU
36 | YFKELPPPSDPSSI |  |  | The normalized value in BLU units [3]: 164.8 BLU
37 | YFKNMSNPKIPATK |  |  | The normalized value in BLU units (SPOT analysis, Myo5 SH3) [4]: 127.8 BLU
38 | YFVKKIRPGNPLTK | 508.5 BLU |  | 
39 | YGDNKKNPESPESV | 147.1 BLU |  | 
40 | YGSEKGSPAGPSAV | 50.3 BLU |  | 
41 | YILPKTDPRSPYYI |  | 188.5 BLU | 
42 | YKNRKNLPTIPIRL |  | 960.6 BLU | 

Row | Sequence | The normalized value in BLU units [1] | The normalized value in BLU units (SPOT analysis, Myo5 SH3) [2] | further results
43 | YLLELPDPLIPNDV |  |  | The normalized value in BLU units (SPOT analysis, Myo5 SH3) [4]: 162.7 BLU
44 | YLNNLAEPLIPLSL |  |  | The normalized value in BLU units (SPOT analysis, Myo5 SH3) [4]: 222.0 BLU
45 | YLNSLSEPLVPLAL |  |  | The normalized value in BLU units (SPOT analysis, Myo5 SH3) [4]: 131.6 BLU
46 | YLPHMSRPLGPDEV |  |  | The normalized value in BLU units (SPOT analysis, Myo5 SH3) [4]: 172.0 BLU
47 | YLTEFSRPIPPTPS |  |  | The normalized value in BLU units [3]: 168.8 BLU
48 | YPAKLRIPETPVKK |  |  | The normalized value in BLU units [3]: 219.9 BLU
49 | YPEKFQKPYNPLAM |  |  | The normalized value in BLU units [3]: 157.4 BLU
50 | YPNGRTLPPVPTQV | 172.4 BLU |  | 
51 | YSTNRGIPARPCKD |  |  | The normalized value in BLU units [3]: 271.3 BLU
52 | YSYLRLLPWWPSLA |  | 187.6 BLU | 
53 | YTYSRNEPVIPTKP |  | 209.5 BLU | 
54 | YVKERRPPPPPPLL | 15869.6 BLU |  | 
55 | YVNAKLDPSLPSQY |  | 97.1 BLU | 
56 | YVNPRNLPSVPNGL |  | 179.8 BLU | 
57 | YVVKKNFPVSPNYT | 193.9 BLU |  | 
58 | YVYGRQDPKKPFFT |  | 345.2 BLU | 
59 | YWGKKFEPERPFEF |  | 385.0 BLU | 
60 | YWKLFFQPEYPVRM |  |  | The normalized value in BLU units [3]: 144.2 BLU
61 | YYYYKHYPNMPPIN |  | 287.9 BLU | 
